Results reported in patent publication US4345938A, “Herbicidal 2-haloacetanilides” (Monsanto Company, priority 1980, dated 1982).

Legend:
Type in all cases: in vivo
[1] = system: Upland seeded rice; experiment: Upland seeded rice greenhouse test, rice safety; details: Upland seeded rice, greenhouse; maximum test rate
Method: In another comparative test in the greenhouse, the compound of Example 2 and Compound B were tested in Upland seeded rice. […] In contrast, Compound A, (a commercial rice herbicide), required 0.14 kg/ha (0.125 lb/A) to selectively control the same weed with rice safety also maintained at 1.12 kg/ha resulting in a selectivity factor of at least 8, i.e., less than one-half that of the compound of Example 2.

[2] = system: Lambsquarters; experiment: Pre-emergent herbicidal test, Lambsquarters; note: ranges in brackets are in %
Excerpt: (§1) A good grade of top soil is placed in aluminum pans and compacted to a depth of three-eights to one-half inch from the top of the pan. On the top of the soil is placed a number of seeds or vegetative propagules of various plant species. The soil required to level fill the pans after seeding or adding vegetative propagules is weighted into a pan. The soil and a known amount of the active ingredient applied in a solvent or as a wettable powder suspension are thoroughly mixed, and used to cover the prepared pans. After treatment, the pans are moved into a greenhouse bench where they are watered by subirrigation as needed to give adequate moisture for germination and growth.
(§2) Approximately 2 weeks after seeding and treating, the plants were observed and the results recorded. The herbicidal rating was obtained by means of a fixed scale based on the percent injury of each plant species. The ratings are defined as follows: […]

[3] = system: Sorghum; experiment: Pre-emergent herbicidal test, Sorghum; details: Table II; note: ranges in brackets are in %
Excerpt: as §1, §2
(§3) The compounds were further tested by utilizing the above procedure on the following plant species: […]

[4] = system: Johnsongrass; experiment: Pre-emergent herbicidal test, Johnsongrass; details: Table I; note: ranges in brackets are in %
Excerpt: as §1, §2

[5] = system: Barnyardgrass; experiment: Pre-emergent herbicidal test, Barnyardgrass; note: ranges in brackets are in %
Excerpt: as §1, §2

[6] = system: Cocklebur; experiment: Pre-emergent herbicidal test, Cocklebur; details: Table II; note: ranges in brackets are in %
Excerpt: as §1, §2

[7] = system: Smartweed; experiment: Pre-emergent herbicidal test, Smartweed; note: ranges in brackets are in %
Excerpt: as §1, §2

[8] = system: Canada Thistle; experiment: Pre-emergent herbicidal test, Canada Thistle; details: Table I; note: ranges in brackets are in %
Excerpt: as §1, §2

[9] = system: Quackgrass; experiment: Pre-emergent herbicidal test, Quackgrass; details: Table I; note: ranges in brackets are in %
Excerpt: as §1, §2

[10] = system: Wild Buckwheat; experiment: Pre-emergent herbicidal test, Wild Buckwheat; details: Table II; note: ranges in brackets are in %
Excerpt: as §1, §2, §3

[11] = system: Velvetleaf; experiment: Pre-emergent herbicidal test, Velvetleaf; note: ranges in brackets are in %
Excerpt: as §1, §2

[12] = system: Downy Brome; experiment: Pre-emergent herbicidal test, Downy Brome; note: ranges in brackets are in %
Excerpt: as §1, §2

[13] = system: Sugarbeet; experiment: Pre-emergent herbicidal test, Sugarbeet; details: Table II; note: ranges in brackets are in %
Excerpt: as §1, §2, §3

CCCCOCN(C(=O)CCl)c1c(CC)cccc1CC [Compound A, 2',6'-diethyl-N-(n-butoxymethyl)-2-chloroacetanilide]
≥ 1.12 kg/ha: rate at which rice safety is maintained [1]

CCCCOc1cccc(CC)c1N(C)C(=O)CCl [Example 1, N-methyl-2'-n-butoxy-6'-ethyl-2-chloroacetanilide]
1 (25-49): Rating, Barnyardgrass ([5]; Table II, 0.006 kg/h) | Rating, Wild Buckwheat ([10]; 0.01 kg/h) | Rating, Wild Buckwheat ([10]; 0.06 kg/h) | Rating, Wild Buckwheat ([10]; 0.28 kg/h) | Rating, Velvetleaf ([11]; Table II, 1.12 kg/h) | Rating, Velvetleaf ([11]; Table II, 5.6 kg/h) | Rating, Downy Brome ([12]; Table II, 0.01 kg/h) | Rating, Sugarbeet ([13]; 0.28 kg/h)
0 (0-24): Rating, Lambsquarters ([2]; Table II, 0.006 kg/h) | Rating, Lambsquarters ([2]; Table II, 0.01 kg/h) | Rating, Lambsquarters ([2]; Table II, 0.06 kg/h) | Rating, Sorghum ([3]; 0.006 kg/h) | Rating, Sorghum ([3]; 0.01 kg/h) | Rating, Cocklebur ([6]; 0.06 kg/h) | Rating, Cocklebur ([6]; 5.6 kg/h) | Rating, Smartweed ([7]; Table II, 0.006 kg/h) | Rating, Smartweed ([7]; Table II, 0.01 kg/h) | Rating, Smartweed ([7]; Table II, 0.06 kg/h) | Rating, Wild Buckwheat ([10]; 0.006 kg/h) | Rating, Velvetleaf ([11]; Table II, 0.006 kg/h) | Rating, Velvetleaf ([11]; Table II, 0.01 kg/h) | Rating, Velvetleaf ([11]; Table II, 0.06 kg/h) | Rating, Velvetleaf ([11]; Table II, 0.28 kg/h) | Rating, Downy Brome ([12]; Table II, 0.006 kg/h) | Rating, Sugarbeet ([13]; 0.006 kg/h) | Rating, Sugarbeet ([13]; 0.01 kg/h) | Rating, Sugarbeet ([13]; 0.06 kg/h)
2 (50-74): Rating, Lambsquarters ([2]; Table II, 0.28 kg/h) | Rating, Sorghum ([3]; 0.06 kg/h) | Rating, Barnyardgrass ([5]; Table II, 0.01 kg/h) | Rating, Smartweed ([7]; Table I, 5.6 kg/h) | Rating, Smartweed ([7]; Table II, 0.28 kg/h) | Rating, Wild Buckwheat ([10]; 1.12 kg/h) | Rating, Velvetleaf ([11]; Table I, 5.6 kg/h) | Rating, Velvetleaf ([11]; Table I, 11.2 kg/h) | Rating, Sugarbeet ([13]; 1.12 kg/h)
3 (75-100): Rating, Lambsquarters ([2]; Table I, 5.6 kg/h) | Rating, Lambsquarters ([2]; Table I, 11.2 kg/h) | Rating, Lambsquarters ([2]; Table II, 1.12 kg/h) | Rating, Lambsquarters ([2]; Table II, 5.6 kg/h) | Rating, Sorghum ([3]; 0.28 kg/h) | Rating, Sorghum ([3]; 1.12 kg/h) | Rating, Sorghum ([3]; 5.6 kg/h) | Rating, Johnsongrass ([4]; 5.6 kg/h) | Rating, Johnsongrass ([4]; 11.2 kg/h) | Rating, Barnyardgrass ([5]; Table I, 5.6 kg/h) | Rating, Barnyardgrass ([5]; Table I, 11.2 kg/h) | Rating, Barnyardgrass ([5]; Table II, 0.06 kg/h) | Rating, Barnyardgrass ([5]; Table II, 0.28 kg/h) | Rating, Barnyardgrass ([5]; Table II, 1.12 kg/h) | Rating, Barnyardgrass ([5]; Table II, 5.6 kg/h) | Rating, Smartweed ([7]; Table I, 11.2 kg/h) | Rating, Smartweed ([7]; Table II, 1.12 kg/h) | Rating, Smartweed ([7]; Table II, 5.6 kg/h) | Rating, Canada Thistle ([8]; 5.6 kg/h) | Rating, Canada Thistle ([8]; 11.2 kg/h) | Rating, Quackgrass ([9]; 5.6 kg/h) | Rating, Quackgrass ([9]; 11.2 kg/h) | Rating, Wild Buckwheat ([10]; 5.6 kg/h) | Rating, Downy Brome ([12]; Table I, 5.6 kg/h) | Rating, Downy Brome ([12]; Table I, 11.2 kg/h) | Rating, Downy Brome ([12]; Table II, 0.06 kg/h) | Rating, Downy Brome ([12]; Table II, 0.28 kg/h) | Rating, Downy Brome ([12]; Table II, 1.12 kg/h) | Rating, Downy Brome ([12]; Table II, 5.6 kg/h) | Rating, Sugarbeet ([13]; 5.6 kg/h)
